# Calls of active or inactive are those of the source. The calls are words filed in the database; no cut-off is given here.
# Assays:
# Mus musculus [1] = assay: Anti-inflammatory activity against MOG35-55-induced experimental autoimmune encephalomyelitis C57BL/6 mouse model assessed as fold change in MBP gene expression in brain at 600 mg/kg/day, ig for 14 days starting from 12th day of immunization by RT-qPCR analysis relative to control; assay type: functional; settings: time 14 day
# Mus musculus [2] = assay: Anti-inflammatory activity against MOG35-55-induced experimental autoimmune encephalomyelitis C57BL/6 mouse model assessed as fold change in YWHAH gene expression in brain at 600 mg/kg/day, ig for 14 days starting from 12th day of immunization by RT-qPCR analysis relative to control; assay type: functional; settings: time 14 day
# Mus musculus [3] = assay: Anti-inflammatory activity against MOG35-55-induced experimental autoimmune encephalomyelitis C57BL/6 mouse model assessed as fold change in STAT3 gene expression in brain at 300 mg/kg/day, ig for 14 days starting from 12th day of immunization by RT-qPCR analysis relative to control; assay type: functional; settings: time 14 day
# Mus musculus [4] = assay: Anti-inflammatory activity against MOG35-55-induced experimental autoimmune encephalomyelitis C57BL/6 mouse model assessed as fold change in CD4 gene expression in brain at 300 mg/kg/day, ig for 14 days starting from 12th day of immunization by RT-qPCR analysis relative to control; assay type: functional; settings: time 14 day
# Mus musculus [5] = assay: Anti-inflammatory activity against MOG35-55-induced experimental autoimmune encephalomyelitis C57BL/6 mouse model assessed as fold change in MMP9 gene expression in brain at 300 mg/kg/day, ig for 14 days starting from 12th day of immunization by RT-qPCR analysis relative to control; assay type: functional; settings: time 14 day
# Mus musculus [6] = assay: Anti-inflammatory activity against MOG35-55-induced experimental autoimmune encephalomyelitis C57BL/6 mouse model assessed as fold change in H2EB1 (HLA-DRB1) gene expression in brain at 300 mg/kg/day, ig for 14 days starting from 12th day of immunization by RT-qPCR analysis relative to control; assay type: functional; settings: time 14 day
# Mus musculus [7] = assay: Anti-inflammatory activity against MOG35-55-induced experimental autoimmune encephalomyelitis C57BL/6 mouse model assessed as reduction in CXCL9 protein expression in brain at 300 to 600 mg/kg/day, ig for 14 days starting from 12th day of immunization by western blot analysis; assay type: functional, organism-based; settings: dose 300-600 mg/kg/day, time 14.0 day
# Mus musculus [8] = assay: Anti-inflammatory activity against MOG35-55-induced experimental autoimmune encephalomyelitis C57BL/6 mouse model assessed as reduction in serum monokines level by measuring reduction in IL-1B level at 600 mg/kg/day, ig for 14 days starting from 12th day of immunization by ELISA; assay type: functional, organism-based; settings: time 14.0 day
# Mus musculus [9] = assay: Anti-inflammatory activity against MOG35-55-induced experimental autoimmune encephalomyelitis C57BL/6 mouse model assessed as reduction in serum chemokines level by measuring reduction in FASL level at 600 mg/kg/day, ig for 14 days starting from 12th day of immunization by ELISA; assay type: functional, organism-based; settings: time 14.0 day
# Mus musculus [10] = assay: Anti-inflammatory activity against MOG35-55-induced experimental autoimmune encephalomyelitis C57BL/6 mouse model assessed as increase in serum IL-4 level at 600 mg/kg/day, ig for 14 days starting from 12th day of immunization by ELISA; assay type: functional, organism-based; settings: time 14.0 day
# Mus musculus [11] = assay: Anti-inflammatory activity against MOG35-55-induced experimental autoimmune encephalomyelitis C57BL/6 mouse model assessed as methylation of CpG sites of IL10RA gene promoter in brain at 600 mg/kg, ig for 14 days starting from 12th day of immunization by PCR analysis (reference value: 34.9 +/-4%); assay type: functional; settings: time 14 day
# Mus musculus [12] = assay: Anti-inflammatory activity against MOG35-55-induced experimental autoimmune encephalomyelitis C57BL/6 mouse model assessed as reduction in EAE symptoms by measuring reduction in cumulative scores at 0.3 mg/kg/day, ig for 14 days starting from 12th day of immunization and measured from day 12 to 38 post-immunization; assay type: functional, organism-based; settings: time 1-26 day
# Mus musculus [13] = assay: Anti-inflammatory activity against MOG35-55-induced experimental autoimmune encephalomyelitis C57BL/6 mouse model assessed as fold change in CCL5 gene expression in brain at 0.3 mg/kg/day, ig for 14 days starting from 12th day of immunization by RT-qPCR analysis relative to control; assay type: functional; settings: time 14 day
# Mus musculus [14] = assay: Anti-inflammatory activity against MOG35-55-induced experimental autoimmune encephalomyelitis C57BL/6 mouse model assessed as fold change in CXCL9 gene expression in brain at 0.3 mg/kg/day, ig for 14 days starting from 12th day of immunization by RT-qPCR analysis relative to control; assay type: functional; settings: time 14 day
# Mus musculus [15] = assay: Anti-inflammatory activity against MOG35-55-induced experimental autoimmune encephalomyelitis C57BL/6 mouse model assessed as fold change in CXCL9 gene expression in brain at 0.15 mg/kg/day, ig for 14 days starting from 12th day of immunization by RT-qPCR analysis relative to control; assay type: functional; settings: time 14 day
# Mus musculus [16] = assay: Anti-inflammatory activity against MOG35-55-induced experimental autoimmune encephalomyelitis C57BL/6 mouse model assessed as fold change in PLP gene expression in brain at 0.15 mg/kg/day, ig for 14 days starting from 12th day of immunization by RT-qPCR analysis relative to control; assay type: functional; settings: time 14 day
# Mus musculus [17] = assay: Anti-inflammatory activity against MOG35-55-induced experimental autoimmune encephalomyelitis C57BL/6 mouse model assessed as fold change in TGFB1 gene expression in brain at 0.15 mg/kg/day, ig for 14 days starting from 12th day of immunization by RT-qPCR analysis relative to control; assay type: functional; settings: time 14 day
# Mus musculus [18] = assay: Anti-inflammatory activity against MOG35-55-induced experimental autoimmune encephalomyelitis C57BL/6 mouse model assessed as fold change in MMP9 gene expression in brain at 0.15 mg/kg/day, ig for 14 days starting from 12th day of immunization by RT-qPCR analysis relative to control; assay type: functional; settings: time 14 day
# Mus musculus [19] = assay: Anti-inflammatory activity against MOG35-55-induced experimental autoimmune encephalomyelitis C57BL/6 mouse model assessed as upregulation of PLP protein expression in brain at 0.15 to 0.3 mg/kg/day, ig for 14 days starting from 12th day of immunization by western blot analysis; assay type: functional, organism-based; settings: dose 0.15-0.3 mg/kg/day, time 14.0 day
# Mus musculus [20] = assay: Anti-inflammatory activity against MOG35-55-induced experimental autoimmune encephalomyelitis C57BL/6 mouse model assessed as reduction in serum chemokines level by measuring reduction in […] level at 0.3 mg/kg/day, ig for 14 days starting from 12th day of immunization by ELISA; assay type: functional, organism-based; settings: time 14.0 day
# Mus musculus [21] = assay: Anti-inflammatory activity against MOG35-55-induced experimental autoimmune encephalomyelitis C57BL/6 mouse model assessed as methylation of CpG sites of CXCL14 gene promoter in brain at […], ig for 14 days starting from 12th day of immunization by PCR analysis (reference value: 46.5 +/-6%); assay type: functional; settings: time 14 day
# Mus musculus [22] = assay: Anti-inflammatory activity against MOG35-55-induced experimental autoimmune encephalomyelitis C57BL/6 mouse model assessed as methylation of CpG sites of SOCS5 gene promoter in brain at […], ig for 14 days starting from 12th day of immunization by PCR analysis (reference value: 10.6 +/-4%); assay type: functional; settings: time 14 day
compound,measurement,setting,value
CCCCCCCCCCCCCCCCCCCCCCCCC(=O)O[C@H]1CC[C@]2(C)[C@H]3CC=C4[C@@H]5CC(C)(C)CC[C@]5(CO)CC[C@@]4(C)[C@]3(C)CC[C@H]2C1(C)C,fold change (FC),Mus musculus [1],3.8
same,fold change (FC),Mus musculus [2],-1.78
same,fold change (FC),Mus musculus [3],1.54
same,fold change (FC),Mus musculus [4],2.55
same,fold change (FC),Mus musculus [5],1.42
same,fold change (FC),Mus musculus [6],2.83
same,Activity,Mus musculus [7],Active
same,Activity,Mus musculus [8],Active
same,Activity,Mus musculus [9],Active
same,Activity,Mus musculus [10],Active
same,Activity,Mus musculus [11],32%
CCCCCCCCc1ccc(CCC(N)(CO)CO)cc1 [FINGOLIMOD],Activity,Mus musculus [12],Active
same,fold change (FC),Mus musculus [13],-1.06
same,fold change (FC),Mus musculus [14],-1.12
same,fold change (FC),Mus musculus [15],2.86
same,fold change (FC),Mus musculus [16],1.54
same,fold change (FC),Mus musculus [17],1.86
same,fold change (FC),Mus musculus [18],2.43
same,Activity,Mus musculus [19],inactive
same,Activity,Mus musculus [20],Active
same,Activity,Mus musculus [21],73.6%
same,Activity,Mus musculus [22],8.8%

# Source: ChEMBL document CHEMBL5226375, “Synthesis and Comprehensive in Vivo Activity Profiling of Olean-12-en-28-ol, 3β-Pentacosanoate in Experimental Autoimmune Encephalomyelitis: A Natural Remyelinating and Anti-Inflammatory Agent” (J Nat Prod, 2023)
